A short description of series [1]: Pharmacokinetics of insulin/TCTP-PTD analog mixtures in normal rats (plasma insulin, ELISA). In kind it is in vivo, rat. To be noted: for BA (relative bioavailability compared to s.c.) / AUC / Cmax / Tmax: mean ± SEM (n = 5–7); for Cmax / Tmax: ELISA. The method, then: Rats were fasted for 16 h with access to water, anesthetized by intraperitoneal injection of sodium pentobarbital (60 mg/kg), and placed in the supine position. […] Blood samples (100 µL) were collected from the rat tail 5, 10, 20, 30, 60, 90, 120 and 180 min after dosing and centrifuged at 5000 × g for 25 min to obtain plasma. […] Relative BA was calculated using the following formula: BA(%)=(AUCnasal×Doses.c.)/(AUCs.c×Dosenasal)×100%
In general terms: ELISA stands for enzyme-linked immunosorbent assay.

For series [2] the following is noted: D-form compared with L-TCTP-PTD 13; ref Bae et al., 2016; cited from earlier work. From the text:
Therefore, the D-TCTP-PTD analogs could negatively affect insulin delivery through the nasal mucosa.

For series [3], the system named is BEAS-2B human bronchial epithelial cells. The series is described as follows: Cellular uptake of FITC-labeled peptides, flow cytometry. Format: cell-based. To be noted: FITC-labeled peptides 5 µM in BEGM, BEAS-2B cells, 30 min, 37 °C, p < .05. The method, then: Cellular uptake assays were carried out to assess the membrane permeability of the new peptides, as previously described (Bae et al., [2016]). Briefly, BEAS-2B human bronchial epithelial cells (American Type Culture Collection [ATCC], Manassas, VA) were maintained in bronchial epithelial growth medium (BEGM; Lonza, Walkersville, MD) and 2 × 10^5 cells/well were seeded in 12-well plates. After 24 h, the cells were washed twice with 1 mL phosphate-buffered saline (PBS) and incubated with FITC-labeled peptides (5 µM) in BEGM for 30 min at 37 °C. The cells were then washed three times with ice-cold PBS to remove cell surface-bound peptides. After trypsinization, the cells were collected by centrifugation (1000 × g for 5 min), washed and finally resuspended in 1 mL ice-cold PBS. The internalized FITC was measured using fluorescence-activated cell sorting on a FACSCalibur flow cytometer (Becton Dickinson, San Jose, CA, USA) at emission and excitation wavelengths of 510 and 530 nm, respectively. Assays were performed in triplicate and repeated at least three times. Flow cytometric analyses were accomplished using WinMDI v.2.8 software.
Background: Flow cytometry measures light scatter and fluorescence of single cells or particles in a stream.

The conditions of series [4]: ref Bae & Lee, 2013; cited from earlier work. The text has this: We previously reported that the human translationally controlled tumor protein (TCTP) contains a PTD at its N-terminus (TCTP-PTD) with the amino acid sequence […] al., [2011a]). To improve the penetration of peptides through the cell membrane, we designed variant peptides modified from TCTP-PTD. […] Therefore, the D-TCTP-PTD analogs could negatively affect insulin delivery through the nasal mucosa.

The subject of series [5] is rats with alloxan-induced diabetes. Kind of series: Pharmacodynamics (blood glucose) of insulin/TCTP-PTD analog mixtures in diabetic rats. Format: in vivo, rat. To be noted: area above blood glucose curve, mean ± SEM (n = 6–8). On the procedure: After 5 days, rats with fasting blood glucose levels in the range of 230-300 mg/dL were selected for the pharmacodynamic studies. […] Then, they were anesthetized by intraperitoneal injections of sodium pentobarbital (60 mg/kg). […] Blood samples were collected from the tip of the rat tail, and blood glucose levels were directly measured using an Accu-Chek glucose meter (Roche Diagnostics, Seoul, Korea). […] The area above the blood glucose curve (AAC) was calculated according to the trapezoid rule. The F% was calculated using the following equation: F%=([…])×100%

[6] abbreviates: insulin 1 IU/kg intranasal plus 0.25 mM PTD.
Where [7] appears, read: plasma insulin AUC0-180 min, insulin 1 IU/kg intranasal plus 0.25 mM PTD.
Setting [8] is: plasma insulin, insulin 1 IU/kg intranasal plus 0.25 mM PTD.
Where [9] appears, read: insulin 1 IU/kg intranasal plus 0.1 mM PTD.
Where [10] appears, read: plasma insulin AUC0-180 min, insulin 1 IU/kg intranasal plus 0.1 mM PTD.
Setting [11] is: plasma insulin, insulin 1 IU/kg intranasal plus 0.1 mM PTD.

Values joined by “and” are separate entries in the source; they are usually repeats but may differ in a detail not shown here. Identical values can stand only once. Square brackets hold non-standard residues; d marks the D form. Peptide text beside a SMILES is read from it.

Consider four molecules from publication PMC6058520 (Drug Delivery, 2018).

As to `CC[C@@H](C)[C@@H](NC(=O)[C@@H](CC(C)C)NC(=O)[C@@H](C)NC(=O)[C@@H](CCCNC(=N)N)NC(=O)[C@@H](Cc1ccccc1)NC(=O)[C@H](NC(=O)[C@H](NC(=O)[C@@H](CCSC)NC(C)=O)[C@H](C)CC)[C@H](C)CC)C(=O)N[C@H](CO)C(=O)N[C@H](Cc1c[nH]cn1)C(=O)N[C@H](CCCCN)C(=O)N[C@H](CCCCN)C(N)=O` [D-TCTP-PTD 13] (Ac-[dM][dI][dI][dF][dR][dA][dL][dI][dS][dH][dK][dK]-NH2), in series [1] (setting [6]), the “BA (relative bioavailability compared to s.c.)” value was 6.8% and 6.8 ± 2.0%. The AUC in series [1] (setting [7]) is recorded as 645.5 ± 191.2 μU/mL·min. Also, in series [1] (setting [8]), the Cmax is recorded as 13.8 ± 4.2 μU/mL and the Tmax is given as 14.0 ± 2.4 min. Further, the “antigen (ovalbumin) carrier potency through nasal mucosa (in words)” value in series [2] is listed as “more potent antigen carrier”.

Regarding `CC[C@H](C)[C@H](NC(=O)[C@H](CC(C)C)NC(=O)[C@H](CC(C)C)NC(=O)[C@H](CCCNC(=N)N)NC(=O)[C@H](Cc1ccccc1)NC(=O)[C@@H](NC(=O)[C@@H](NC(=O)[C@H](CCSC)NC(C)=O)[C@@H](C)CC)[C@@H](C)CC)C(=O)N[C@@H](CO)C(=O)N[C@@H](Cc1c[nH]cn1)C(=O)N[C@@H](CCCCN)C(=O)N[C@@H](CCCCN)C(N)=O` [L-TCTP-PTD 13M1] (Ac-MIIFRLLISHKK-NH2), the “cellular uptake capacity compared with L-TCTP-PTD 13 (in words)” value in series [3] was “lower”. Also, the “BA (relative bioavailability compared to s.c.)” value in series [1] (setting [9]) was found to be 20.9 ± 1.4%; in series [1] (setting [6]) it was 10.1 ± 2.4%. Further, the AUC in series [1] (setting [10]) turned out to be 1966.3 ± 130.5 μU/mL·min; in series [1] (setting [7]), 951.7 ± 225.9 μU/mL·min. For the same molecule, the Cmax worked out at 47.1 ± 3.1 μU/mL in series [1] (setting [11]) and 15.0 ± 3.3 μU/mL in series [1] (setting [8]). The Tmax in series [1] (setting [11]) was determined as 10.0 ± 0.0 min; in series [1] (setting [8]), 13.3 ± 2.1 min.

On to `CC[C@H](C)[C@H](NC(=O)[C@H](CC(C)C)NC(=O)[C@H](C)NC(=O)[C@H](CCCNC(=N)N)NC(=O)[C@H](Cc1ccccc1)NC(=O)[C@@H](NC(=O)[C@@H](NC(=O)[C@H](CCSC)NC(C)=O)[C@@H](C)CC)[C@@H](C)CC)C(=O)N[C@@H](CO)C(=O)N[C@@H](Cc1c[nH]cn1)C(=O)N[C@@H](CCCCN)C(=O)N[C@@H](CCCCN)C(N)=O` [L-TCTP-PTD 13] (Ac-MIIFRALISHKK-NH2), for which the “BA (relative bioavailability compared to s.c.)” value is 9.0 ± 1.4% in series [1] (setting [9]); 22.1% and 22.1 ± 2.5% in series [1] (setting [6]). Also, the AUC was found to be 847.1 ± 132.9 μU/mL·min in series [1] (setting [10]) and 2081.7 ± 238.6 μU/mL·min in series [1] (setting [7]). The figures for the Cmax in series [1] (setting [11]) and in series [1] (setting [8]) were 26.4 ± 7.8 μU/mL and 53.4 ± 6.7 μU/mL, respectively. Besides, the Tmax in series [1] (setting [11]) was determined as 12.0 ± 2.0 min; in series [1] (setting [8]) it was 10.0 ± 0.0 min. Besides, in series [4], the “nasal absorption of insulin compared to insulin alone (in words)” value is “enhanced nasal absorption”.

For “Insulin: Human recombinant insulin (27.5 IU/mg), Sigma-Aldrich”, the AUC in series [1] (AUC0-180 min, insulin s.c., 0.25 IU/kg) worked out at 2356.4 ± 106.2 μU/mL·min; in series [1] (AUC0-180 min, trapezoid rule, insulin alone, intranasal, 5 IU/kg), 180.5 ± 37.6 μU/mL·min. For the same molecule, the “plasma insulin after intranasal insulin alone (in words)” value in series [1] (insulin 1 IU/kg intranasal, alone) is on record as “scarcely detectable”. Besides, in series [1] (insulin s.c., 0.25 IU/kg), the Cmax came to 40.9 ± 0.9 μU/mL. Moreover, the “AAC0–240 min” value was found to be 721.0 ± 478.2 % glucose/min in series [5] (insulin alone, intranasal, 2 IU/kg) and 11354.3 ± 507.8 % glucose/min in series [5] (insulin s.c., 1 IU/kg).
